Data as given in PubChem BioAssay (NCI).
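Five concentrations, 48 hours, 96-well plates. Here, GI50 denotes the concentration required for 50% inhibition of growth. TGI: concentration producing complete growth inhibition.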

Experiments:
Test in all cases: growth of human tumour cells (NCI), 48 h
MOLT-4 leukemia = system: MOLT-4 leukemia
TK-10 renal = system: TK-10 renal
MDA-MB-435 = system: MDA-MB-435
K-562 leukemia = system: K-562 leukemia
DU-145 prostate = system: DU-145 prostate
PC-3 prostate = system: PC-3 prostate
UACC-62 melanoma = system: UACC-62 melanoma
EKVX NSCLC = system: EKVX NSCLC
OVCAR-4 ovarian = system: OVCAR-4 ovarian
SNB-75 CNS = system: SNB-75 CNS

SMILES	GI50 (MOLT-4 leukemia)	TGI (MOLT-4 leukemia)	GI50 (TK-10 renal)	TGI (TK-10 renal)	GI50 (MDA-MB-435)	TGI (MDA-MB-435)	GI50 (K-562 leukemia)	TGI (K-562 leukemia)	GI50 (DU-145 prostate)	TGI (DU-145 prostate)	GI50 (PC-3 prostate)	TGI (PC-3 prostate)	GI50 (UACC-62 melanoma)	TGI (UACC-62 melanoma)	GI50 (EKVX NSCLC)	TGI (EKVX NSCLC)	GI50 (OVCAR-4 ovarian)	TGI (OVCAR-4 ovarian)	GI50 (SNB-75 CNS)	TGI (SNB-75 CNS)
CC1=C2C(=C[C@@](C)(CO)[C@@H]2OC(=O)N(C)CCN(C)C(=O)OC(C)(C)C)C(=O)[C@](C)(O)C12CC2	31.5 µM	> 50 µM	13.6 µM	35.2 µM	9.74 µM	23.1 µM	21.4 µM	> 50 µM	1.78 µM	32.4 µM	7.19 µM	28.6 µM	8.33 µM	17.8 µM	10.7 µM	29.1 µM	4.68 µM	22.6 µM	5.29 µM	11.8 µM
COc1ccc(C2=Nn3c(nnc3-c3cc(Cl)cc(Cl)c3Cl)SC2)cc1	1.49 µM	> 100 µM	2.26 µM	> 53.9 µM	0.163 µM	0.588 µM	0.44 µM	> 31.6 µM	0.355 µM	4.42 µM	0.687 µM	> 100 µM	0.436 µM	> 100 µM	0.622 µM	> 46.1 µM	0.805 µM	> 100 µM	0.335 µM	–
CCCN1C(=O)NC(=O)C(CC)(N2C(=O)c3c(F)c(F)c(F)c(F)c3C2=O)C1=O (centres undefined)	2.71 µM	8.65 µM	2.29 µM	6 µM	2.25 µM	6.52 µM	1.73 µM	4.55 µM	1.7 µM	3.27 µM	1.95 µM	5.62 µM	1.99 µM	5.94 µM	2.33 µM	6.62 µM	2.22 µM	4.83 µM	1.81 µM	4.52 µM
c1ccc(NN(Cc2cnccn2)c2ccccc2)cc1	–	> 100 µM	–	> 100 µM	–	> 100 µM	–	> 100 µM	–	> 100 µM	–	> 100 µM	–	> 100 µM	–	> 100 µM	–	> 100 µM	–	> 100 µM
C=C1CCC2C3(C)COC(C)(C)OC3CCC2(C)C1C/C=C1/C(=O)OCC1OC(C)=O (centres undefined)	3.53 µM	14.3 µM	5.24 µM	16.3 µM	2.54 µM	11.3 µM	2.85 µM	23.2 µM	4.28 µM	14 µM	10.2 µM	26.2 µM	4.04 µM	17 µM	9.5 µM	24.4 µM	2.6 µM	10.1 µM	5.23 µM	16.5 µM
O=C1C=CC(=O)c2c1ccc1c3ccccc3n(Cc3ccc([N+](=O)[O-])cc3)c21	–	54.2 µM	–	> 100 µM	–	> 100 µM	–	48.8 µM	–	> 100 µM	–	> 100 µM	–	> 100 µM	–	> 100 µM	–	> 100 µM	–	> 100 µM
C=CCc1c(Cl)nc(Cl)nc1Cl	–	0.0625 µM	–	3.35 µM	–	1.4 µM	–	0.125 µM	–	4.86 µM	–	2.92 µM	–	2.07 µM	–	2.58 µM	–	0.84 µM	–	5.87 µM
Nc1nc2ccc(-c3nc4ccc5[nH]ncc5c4c4c3CCC4)cc2s1	0.294 µM	10.7 µM	1.11 µM	9.73 µM	0.0673 µM	0.259 µM	0.115 µM	33.2 µM	0.787 µM	5.62 µM	0.308 µM	14 µM	0.149 µM	0.63 µM	0.916 µM	8.05 µM	0.835 µM	6.25 µM	0.115 µM	0.55 µM
